In US20120177797A1, “TASTE ENHANCING AGENT” (J-OIL MILLS, INC., priority 2009, published 2012):

How the values were obtained:
Type in all cases: in vivo
[1] = Sensory evaluation, intensity of sweetness in aqueous sucrose solution; conditions: 10 ppm added to 2% sucrose; additive-free = 3.0; 1.0 much weaker to 5.0 much stronger
Procedure: (§1) All sensory evaluation of taste was performed by individuals wearing a nose clip. The evaluation was performed by groups of three individuals, and the scores were averaged.
(§2) To a 0.2% aqueous sodium glutamate (MSG) solution (=umami), a 0.8% aqueous salt (NaCl) solution (=saltiness) and a 2% aqueous sucrose solution (=sweetness) were added 10 ppm linear aliphatic aldehydes having 3-12 carbon atoms shown in Table 1, respectively. Sensory evaluation was performed in which intensity of taste sensed when each of the aqueous solutions is introduced into the mouth is defined as “Intensity of umami” for the aqueous MSG solution, “Intensity of saltiness” for the aqueous NaCl solution and “Intensity of sweetness” for the aqueous sucrose solution. The score of aldehyde-free taste intensity was set to 3.0, and taste intensity upon addition of aldehyde was evaluated as follows. The results are shown in Table 1. • 1.0: Much weaker • 2.0: Weaker • 3.0: Similar • 4.0: Stronger • 5.0: Much Stronger
(§3) To a 0.2% aqueous sodium glutamate (MSG) solution (=umami), a 0.8% aqueous salt (NaCl) solution (=saltiness), a 2% aqueous sucrose solution (=sweetness) were added 10 ppm linear aliphatic alcohols having 2-11 carbon atoms, respectively. Sensory evaluation was performed in which intensity of taste sensed when each of the aqueous solutions is introduced into the mouth is defined as “Intensity of umami” for the aqueous MSG solution, “Intensity of saltiness” for the aqueous NaCl solution and “Intensity of sweetness” for the aqueous sucrose solution. The score of alcohol-free taste intensity was set to 3.0, and taste intensity upon addition was evaluated as follows. The results are shown in Table 3. • 1.0: Much weaker • 2.0: Weaker • 3.0: Similar • 4.0: Stronger • 5.0: Much stronger
(§4) To a 0.2% aqueous sodium glutamate (MSG) solution (=umami), a 0.8% aqueous salt (NaCl) solution (=saltiness), a 2% aqueous sucrose solution (=sweetness) were added 1 ppm n-hexanal and 1ppm 1-octene-3-ol each, respectively. Sensory evaluation was performed in which the intensity of taste sensed when each of the aqueous solutions is introduced into the mouth is defined as “Intensity of umami” for the aqueous MSG solution, “Intensity of saltiness” for the aqueous NaCl solution and “Intensity of sweetness” for the aqueous sucrose solution. The score of additive-free taste intensity was set to 3.0, and taste intensity upon addition was evaluated as follows. The results are shown in Table 9. • 1.0: Much weaker • 2.0: Weaker • 3.0: Similar • 4.0: Stronger • 5.0: Much stronger

[2] = Sensory evaluation, intensity of umami in aqueous MSG solution; conditions: 10 ppm added to 0.2% MSG; additive-free = 3.0; 1.0 much weaker to 5.0 much stronger; mean of three individuals, nose clip
Procedure: as §1, §2, §3, §4

[3] = Sensory evaluation, intensity of saltiness in aqueous NaCl solution; conditions: 10 ppm added to 0.8% NaCl; additive-free = 3.0; 1.0 much weaker to 5.0 much stronger
Procedure: as §1, §2, §3, §4

[4] = Sensory evaluation whether salt usage can be reduced; conditions: nothing added, for comparison, 0.5% NaCl solution = 3.0
Procedure: as §1
Evaluation was conducted to find whether salt usage can be reduced by the taste enhancing effects. To a 0.5% aqueous NaCl solution was added 10 ppm n-hexanal or 10 ppm 1-octen-3-ol. Taste intensity was determined in the sensory evaluation where the taste intensity of the 0.5% NaCl solution was set to 3.0. For comparison, sensory evaluation was also performed for a 0.8% and 0.6% concentration of aqueous NaCl solution. The sensory evaluation was evaluated as follows. The results are shown in Table 5. • 1.0: Much weaker • 2.0: Weaker • 3.0: Similar • 4.0: Stronger • 5.0: Much stronger

[5] = Sensory evaluation, intensity of umami in diluted soy sauce; conditions: 10 ppm in soy sauce diluted to 2% in water; aldehyde-free = 3.0; scale 1.0-5.0
Procedure: as §1
(§5) Sensory evaluation was performed for “Intensity of Umani ” and “ Intensity of Saltiness “. The score of aldehyde-free taste intensity was set to 3.0, and taste intensity upon addition was evaluated as follows. The results are shown in Table 7. • 1.0: Much weaker • 2.0: Weaker • 3.0: Similar • 4.0: Stronger • 5.0: Much stronger

[6] = Sensory evaluation, intensity of saltiness in diluted soy sauce; conditions: 10 ppm in soy sauce diluted to 2% in water; aldehyde-free = 3.0; scale 1.0-5.0
Procedure: as §1, §5

[7] = Sensory evaluation, intensity of sweetness in whipped cream; conditions: 100 ppm in whipped cream; aldehyde-free = 3.0; scale 1.0-5.0
Procedure: as §1
Sensory evaluation was performed for “Intensity of sweetness”. The score of aldehyde-free taste intensity was set to 3.0, and taste intensity upon addition was evaluated as follows. The results are shown in Table 8. • 1.0: Much weaker • 2.0: Weaker • 3.0: Similar • 4.0: Stronger • 5.0: Much stronger

[8] = Sensory evaluation, intensity of saltiness in aqueous NaCl solution; conditions: 10 ppm added to 0.8% NaCl; additive-free = 3.0; 1.0 much weaker to 5.0 much stronger; remark: listed apart in the source
[9] = Sensory evaluation, intensity of umami in aqueous MSG solution; conditions: 10 ppm added to 0.2% MSG; additive-free = 3.0; 1.0 much weaker to 5.0 much stronger; mean of three individuals, nose clip; remark: listed apart in the source
[10] = Sensory evaluation, intensity of sweetness in aqueous sucrose solution; conditions: 10 ppm added to 2% sucrose; additive-free = 3.0; 1.0 much weaker to 5.0 much stronger; remark: listed apart in the source
[11] = Sensory evaluation whether sucrose usage can be reduced; conditions: nothing added, for comparison, 1.5% sucrose solution = 3.0
Procedure: as §1
Evaluation was conducted to find whether sucrose usage can be reduced by the taste enhancing effects. To a 1.5% aqueous sucrose solution was added 10 ppm n-hexanal or 10 ppm 1-octen-3-ol. Taste intensity was determined in the sensory evaluation where the taste intensity of the 1.5% sucrose solution was set to 3.0. For comparison, sensory evaluation was also performed for a 2.0% and 1.8% concentration of aqueous sucrose solution. The sensory evaluation was evaluated as follows. The results are shown in Table 6. • 1.0: Much weaker • 2.0: Weaker • 3.0: Similar • 4.0: Stronger • 5.0: Much stronger

Row | SMILES | Intensity of sweetness, Aqueous sucrose solution [1] | Intensity of umami, Aqueous MSG solution [2] | Intensity of saltiness, Aqueous NaCl solution [3] | other results
1 | C=CC(O)CCCCCCC (stereo not shown) [1-decene-3-ol] | 3.5 | 3.2 | 3.2 | 
2 | C=CC(O)CCC (stereo not shown) [1-hexene-3-ol] | 3.5 | 3.2 | 3.2 | 
3 | CCCCCC=CC=CC=O [2,4-decadienal] | 3.5 | 3.5 | 3.5 | 
4 | C=CCCCC=CCO [2,7-octadienol] | 3.5 | 3.2 | 3.2 | 
5 | CCCCO [Example 1-butanol, 1-butanol] | 3.2 | 3.2 | 3.2 | 
6 | C=CC(C)O (stereo not shown) [Example 1-buten-3-ol, 1-buten-3-ol] | 3.5 | 3.2 | 3.2 | 
7 | CCCCCCCCCCO [Example 1-decanol, 1-decanol] | 3.2 | 3.2 | 3.2 | 
8 | CCCCCCCO [Example 1-heptanol, 1-heptanol] | 3.2 | 3.2 | 3.2 | 
9 | CCCCCCO [Example 1-hexanol, 1-hexanol] | 3.2 | 3.2 | 3.2 | 
10 | CCCCCCCCCO [Example 1-nonanol, 1-nonanol] | 3.2 | 3.2 | 3.2 | 
11 | CCCCCCCCO [Example 1-octanol, 1-octanol] | 3.2 | 3.2 | 3.2 | 
12 | CCCCCO [Example 1-pentanol, 1-pentanol] | 3.2 | 3.2 | 3.2 | 
13 | CCCCCCCCCCCO [Example 1-undecanol, 1-undecanol, reference compound] | 3.0 | 3.0 | 3.0 | 
14 | CCCC=CC=O [Example 2-hexenal, 2-hexenal] | 3.8 | 3.8 | 3.8 | 
15 | [Cl-].[Na+] [NaCl, sodium chloride, reference compound] |  |  |  | Scores in sensory evaluation (taste intensity, saltiness) ([4]; 0.6% aqueous NaCl solution): 3.5; Scores in sensory evaluation (taste intensity, saltiness) ([4]; 0.8% aqueous NaCl solution): 4.0
16 | CCO [ethanol, reference compound] | 3.0 | 3.0 | 3.0 | 
17 | CCCC=O [n-butanal] | 3.5 | 3.5 | 3.5 | Intensity of umami [5]: 3.5; Intensity of saltiness [6]: 3.5; Intensity of sweetness [7]: 3.5
18 | CCCCCCCCCC=O [n-decanal] | 3.5 | 3.5 | 3.5 | Intensity of umami [5]: 3.5; Intensity of saltiness [6]: 3.5; Intensity of sweetness [7]: 3.5
19 | CCCCCCCCCCCC=O [n-dodecanal, reference compound] | 3.0 | 3.0 | 3.0 | 
20 | CCCCCCC=O [n-heptanal] | 4.0 | 4.5 | 4.5 | Intensity of umami [5]: 4.0; Intensity of saltiness [6]: 4.0; Intensity of sweetness [7]: 4.0
21 | CCCCCCCC=O [n-octanal] | 3.5 | 3.8 | 3.8 | Intensity of umami [5]: 3.5; Intensity of saltiness [6]: 3.5; Intensity of sweetness [7]: 3.5
22 | CCCCC=O [n-pentanal] | 4.0 | 4.5 | 4.5 | Intensity of umami [5]: 4.2; Intensity of saltiness [6]: 4.2; Intensity of sweetness [7]: 4.2
23 | CCC=O [n-propanal] | 3.5 | 3.5 | 3.5 | Intensity of umami [5]: 3.5; Intensity of saltiness [6]: 3.5; Intensity of sweetness [7]: 3.5
24 | CCCCCCCCCCC=O [n-undecanal, reference compound] | 3.0 | 3.0 | 3.0 | 
25 | CCCO [propanol, reference compound] |  |  |  | Intensity of saltiness, Aqueous NaCl solution [8]: 3.0; Intensity of umami, Aqueous MSG solution [9]: 3.0; Intensity of sweetness, Aqueous sucrose solution [10]: 3.0
26 | OC[C@H]1O[C@@](CO)(O[C@H]2O[C@H](CO)[C@@H](O)[C@H](O)[C@H]2O)[C@@H](O)[C@@H]1O [sucrose, reference compound] |  |  |  | Scores in sensory evaluation (taste intensity, sweetness) ([11]; 1.8% aqueous sucrose solution): 3.5; Scores in sensory evaluation (taste intensity, sweetness) ([11]; 2.0% aqueous sucrose solution): 4.0
